For experiment [1], the target named is T1, Recombinant Human 5′-Nucleotidase (CD73) (Homo sapiens, UniProt P21589).
T1 construct: CHO derived CD73 (Trp27-Lys547), with a C-terminal 6-His tag; 6-His (C); purchased R&D 5795-EN; host or cells: CHO
T1 sequence (P21589 27-547): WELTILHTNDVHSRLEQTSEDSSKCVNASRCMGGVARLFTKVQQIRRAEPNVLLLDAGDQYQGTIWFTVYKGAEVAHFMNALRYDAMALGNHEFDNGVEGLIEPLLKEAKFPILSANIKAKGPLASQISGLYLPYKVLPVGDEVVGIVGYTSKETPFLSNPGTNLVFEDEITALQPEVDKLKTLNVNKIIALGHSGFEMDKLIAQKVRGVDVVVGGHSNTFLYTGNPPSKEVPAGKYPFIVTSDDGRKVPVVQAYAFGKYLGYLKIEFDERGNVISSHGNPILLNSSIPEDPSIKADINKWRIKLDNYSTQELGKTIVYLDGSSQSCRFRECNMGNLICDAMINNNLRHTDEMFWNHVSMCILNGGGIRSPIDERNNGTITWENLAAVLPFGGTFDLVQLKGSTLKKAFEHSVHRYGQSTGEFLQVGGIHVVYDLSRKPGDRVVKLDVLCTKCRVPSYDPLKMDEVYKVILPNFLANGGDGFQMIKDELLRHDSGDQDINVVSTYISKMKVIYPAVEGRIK
The experiment in a line: CD73 Enzyme Assay. In kind it is biochemical. To be noted: human CD73 0.5 nM, AMP 30 μM, PiColorLock phosphate detection; read-out: Potency (IC50, CD73 enzyme assay). The essentials:
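Human CD73 (CHO-derived Trp27-Lys547, His-tagged; 0.5 nM final) was preincubated with compound for 15 min at 25° C. in Tris pH 7.5 buffer with MgCl2. It then reacted with 30 μM AMP for 20 min at 37° C., and released phosphate was read by malachite green absorbance at 635 nm. IC50 came from four-parameter fits against enzyme and no-enzyme controls.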

Experiment [2] addresses T2, Cell surface CD73 of U87 MG human glioblastoma cells (Homo sapiens, UniProt P21589).
T2 construct: Cell surface CD73 catalyzes the conversion of adenosine monophosphate (AMP) to adenosine and inorganic phosphate; endogenous in cells; host or cells: U87 MG human glioblastoma cells
T2 sequence (P21589 27-549): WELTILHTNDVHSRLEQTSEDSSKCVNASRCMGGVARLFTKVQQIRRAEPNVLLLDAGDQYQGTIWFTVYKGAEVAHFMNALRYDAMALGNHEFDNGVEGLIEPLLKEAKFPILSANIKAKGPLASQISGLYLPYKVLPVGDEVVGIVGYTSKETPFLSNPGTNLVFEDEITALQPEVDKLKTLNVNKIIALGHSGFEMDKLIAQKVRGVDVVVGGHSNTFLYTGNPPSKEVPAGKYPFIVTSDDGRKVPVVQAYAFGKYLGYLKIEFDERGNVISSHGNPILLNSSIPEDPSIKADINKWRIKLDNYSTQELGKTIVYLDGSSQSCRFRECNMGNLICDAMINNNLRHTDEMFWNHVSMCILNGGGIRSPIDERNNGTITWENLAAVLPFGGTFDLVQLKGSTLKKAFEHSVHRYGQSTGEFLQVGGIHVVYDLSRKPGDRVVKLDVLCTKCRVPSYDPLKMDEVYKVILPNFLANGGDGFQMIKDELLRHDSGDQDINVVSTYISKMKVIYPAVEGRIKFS
Put plainly: CD73 Cellular Assay. In kind it is cell-based. To be noted: 5000 cells per well, 30 μM AMP substrate, read-out: Potency (IC50, CD73 cellular assay). The essentials:
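U87 MG cells (5000/well) preincubated with compound 30 min at 37 °C, 5% CO2, in HEPES-buffered saline pH 7.4 with 0.5% DMSO, then 30 μM AMP (final) for 50 min. Released phosphate in supernatant read colorimetrically at 635 nm; IC50 from four-parameter logistic fit versus cells-plus-substrate and cells-only controls.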

Structures are written as SMILES.

What is called IC50 is the concentration that gives 50% inhibition. Turning to `C[C@H](Nc1nc(Cl)nn2c([C@@H]3O[C@H](COP(=O)(O)CP(=O)(O)O)[C@@H](O)[C@H]3O)cnc12)c1ccccc1F` [Compound 32, (((((2R,3S,4R,1S)-5-(2-chloro-4-(((S)-1-(2-fluorophenyl)ethyl)amino)imidazo[2,1-f][1,2,4]triazin-7-yl)-3,4-dihydroxytetrahydrofuran-2-yl)methoxy)(hydroxy)phosphoryl)-methyl)phosphonic Acid], the IC50 is under 10 nM in experiment [1] and under 1 nM in experiment [2].
For `C[C@H](Nc1nc(Cl)nn2c([C@@H]3O[C@H](COP(=O)(O)CP(=O)(O)O)[C@@H](O)[C@H]3O)cnc12)c1cncc(F)c1` [Compound 33, (((((2R,3S,4R,5S)-5-(2-chloro-4-(((S)-1-(5-fluoropyridin-3-yl)ethyl)amino)imidazo[2,1-f][1,2,4]triazin-7-yl)-3,4-dihydroxytetrahydrofuran-2-yl)methoxyxhydroxy)phosphoryl)methyl)phosphonic acid], in that order: under 10 nM and 1 to 9.9 nM.
As to `C[C@@H](Nc1nc(Cl)nn2c([C@@H]3O[C@H](COP(=O)(O)CP(=O)(O)O)[C@@H](O)[C@H]3O)cnc12)c1ccccc1` [Compound 34, [({[(2R,3S,4R,5S)-5-(2-chloro-4-{[(1R)-1-phenylethyl]amino}imidazo[2,1-f][1,2,4]triazin-7-yl)-3,4-dihydroxyoxolan-2-yl]methoxy}(hydroxy)phosphoryl)methyl]phosphonic Acid], the IC50 is under 10 nM in experiment [1] and 1 to 9.9 nM in experiment [2].
For `C[C@H](Nc1nc(Cl)nn2c([C@@H]3O[C@H](COP(=O)(O)CP(=O)(O)O)[C@@H](O)[C@H]3O)cnc12)c1ccccc1` [Compound 35, (((((2R,3S,4R,1S)-5-(2-chloro-4-(((S)-1-phenylethyl)amino)imidazo[2,1-f][1,2,4]triazin-7-yl)-3,4-dihydroxytetrahydrofuran-2-yl)methoxy)(hydroxy)phosphoryl)methyl)phosphonic Acid], the values for the IC50 in experiment [1] and in experiment [2] were under 10 nM and under 1 nM, respectively.
On to `C[C@H](Nc1nc(Cl)nn2c([C@@H]3O[C@H](COP(=O)(O)CP(=O)(O)O)[C@@H](O)[C@H]3O)cnc12)c1cccc(F)c1` [Compound 36, (((((2R,3S,4R,5S)-5-(2-chloro-4-(((S)-1-(3-fluorophenyl)ethyl)amino)imidazo[2,1-f][1,2,4]triazin-7-yl)-3,4-dihydroxytetrahydrofuran-2-yl)methoxy)(hydroxy)phosphoryl)methyl) phosphonic acid], for which the IC50 in experiment [1] is under 10 nM; in experiment [2] it was under 1 nM.
Consider `C[C@H](Nc1nc(Cl)nn2c([C@@H]3O[C@H](COP(=O)(O)CP(=O)(O)O)[C@@H](O)[C@H]3O)cnc12)c1ccc(F)cc1` [Compound 37, (((((2R,3S,4R,1S)-5-(2-chloro-4-(((S)-1-(4-fluorophenyl)ethyl)amino)imidazo[2,1-f][1,2,4]triazin-7-yl)-3,4-dihydroxytetrahydrofuran-2-yl)methoxy)(hydroxy)phosphoryl)methyl)phosphonic Acid], for which the values for the concentration for half-maximal inhibition (IC50) in experiment [1] and in experiment [2] were under 10 nM and under 1 nM, respectively.
`CC(C)[C@@H]1CCCN1c1nc(Cl)nn2c([C@@H]3O[C@H](COP(=O)(O)CP(=O)(O)O)[C@@H](O)[C@H]3O)cnc12` [Compound 39, (((((2R,3S,4R,1S)-5-(2-chloro-4-((S)-2-isopropylpyrrolidin-1-yl)imidazo[2,1-f][1,2,4]triazin-7-yl)-3,4-dihydroxytetrahydrofuran-2-yl)methoxy)(hydroxy)phosphoryl)methyl)phosphonic acid]: the IC50 in experiment [1] was under 10 nM; in experiment [2], under 1 nM.
The like results for `O=P(O)(O)CP(=O)(O)OC[C@H]1O[C@@H](c2cnc3c(N4CCCC45CCCC5)nc(Cl)nn23)[C@H](O)[C@@H]1O` [Compound 40, (((((2R,3S,4R,1S)-5-(2-chloro-4-(1-azaspiro[4.4]nonan-1-yl)imidazo[2,1-f][1,2,4]triazin-7-yl)-3,4-dihydroxytetrahydrofuran-2-yl)methoxy)(hydroxy)phosphoryl)methyl)phosphonic Acid] were, in that order, under 10 nM and 1 to 9.9 nM.
On to `O=P(O)(O)CP(=O)(O)OC[C@H]1O[C@@H](c2cnc3c(N4CCCC45CCC5)nc(Cl)nn23)[C@H](O)[C@@H]1O` [Compound 41, [({[(2R,3S,4R,5S)-5-(4-{5-azaspiro[3.4]octan-5-yl}-2-chloroimidazo[2,1-f][1,2,4]triazin-7-yl)-3,4-dihydroxyoxolan-2-yl]methoxy}(hydroxy)phosphoryl)methyl]phosphonic Acid], for which the IC50 in experiment [1] was under 10 nM; in experiment [2] it was under 1 nM.
Regarding `O=P(O)(O)CP(=O)(O)OC[C@H]1O[C@@H](c2cnc3c(N4CCOCC4)nc(Cl)nn23)[C@H](O)[C@@H]1O` [Compound 42, (((((2R,3S,4R,5S)-5-(2-chloro-4-morpholinoimidazo[2,1-f][1,2,4]triazin-7-yl)-3,4-dihydroxytetrahydrofuran-2-yl)methoxyxhydroxy)phosphoryl)methyl)phosphonic acid], the IC50 in experiment [1] was under 10 nM; in experiment [2], under 1 nM.
As to `O=P(O)(O)CP(=O)(O)OC[C@H]1O[C@@H](c2cnc3c(N4CCCCC4)nc(Cl)nn23)[C@H](O)[C@@H]1O` [Compound 43, (((((2R,3S,4R,1S)-5-(2-chloro-4-(piperidin-1-yl)imidazo[2,1-f][1,2,4]triazin-7-yl)-3,4-dihydroxytetrahydrofuran-2-yl)methoxy)(hydroxy)phosphoryl)methyl)phosphonic Acid], the half-inhibitory concentration (IC50) is under 10 nM in experiment [1] and under 1 nM in experiment [2].
For the compound `O=P(O)(O)CP(=O)(O)OC[C@H]1O[C@@H](c2cnc3c(N4CCC(F)(F)CC4)nc(Cl)nn23)[C@H](O)[C@@H]1O` [Compound 44, (((((2R,3S,4R,1S)-5-(2-chloro-4-(4,4-difluoropiperidin-1-yl)imidazo[2,1-f][1,2,4]triazin-7-yl)-3,4-dihydroxytetrahydrofuran-2-yl)methoxy)(hydroxy)phosphoryl)methyl)phosphonic Acid], the figures for the half-maximal inhibitory concentration (IC50) in experiment [1] and in experiment [2] were under 10 nM and under 1 nM, respectively.
In the case of `O=P(O)(O)CP(=O)(O)OC[C@H]1O[C@@H](c2cnc3c(N4CC5CC5C4)nc(Cl)nn23)[C@H](O)[C@@H]1O` (stereo partly drawn) [Compound 45, [({[(2R,3S,4R,5S)-5-(4-{3-azabicyclo[3.1.0]hexan-3-yl}-2-chloroimidazo[2,1-f][1,2,4]triazin-7-yl)-3,4-dihydroxyoxolan-2-yl]methoxy}(hydroxy)phosphoryl)methyl]phosphonic Acid], the figures for the IC50 in experiment [1] and in experiment [2] were under 10 nM and under 1 nM, respectively.
In the case of `O=P(O)(O)CP(=O)(O)OC[C@H]1O[C@@H](c2cnc3c(N4CCC(F)(F)C4)nc(Cl)nn23)[C@H](O)[C@@H]1O` [Compound 46, [({[(2R,3S,4R,5S)-5-[2-chloro-4-(3,3-difluoropyrrolidin-1-yl)imidazo[2,1-f][1,2,4]triazin-7-yl]-3,4-dihydroxyoxolan-2-yl]methoxy}(hydroxy)phosphoryl)methyl]phosphonic Acid], the results for the IC50 in experiment [1] and in experiment [2] were under 10 nM and under 1 nM, respectively.
For `O=P(O)(O)CP(=O)(O)OC[C@H]1O[C@@H](c2cnc3c(NC4CCOCC4)nc(Cl)nn23)[C@H](O)[C@@H]1O` [Compound 47, (((((2R,3S,4R,1S)-5-(2-chloro-4-((tetrahydro-2H-pyran-4-yl)amino)imidazo[2,1-f][1,2,4]triazin-7-yl)-3,4-dihydroxytetrahydrofuran-2-yl)methoxy)(hydroxy)phosphoryl)methyl)phosphonic Acid], in that order: under 10 nM and 1 to 9.9 nM.

These data come from patent publication US20220204539A1, “CD73 INHIBITORS” (BioArdis LLC, priority 2019, published 2022).
